This assay concerns the target Cathepsin D (Homo sapiens, UniProt P07339). The assay is described as follows: Inhibitory activity of compound against human Cathepsin D.

A value given as a limit tells only on which side of the number the result lay.

Sequence of Cathepsin D (P07339 65-162 limits assumed): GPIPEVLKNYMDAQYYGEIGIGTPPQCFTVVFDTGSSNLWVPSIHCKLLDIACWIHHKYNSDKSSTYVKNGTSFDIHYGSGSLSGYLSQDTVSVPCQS
Sequence of Cathepsin D (P07339 169-412 limits assumed): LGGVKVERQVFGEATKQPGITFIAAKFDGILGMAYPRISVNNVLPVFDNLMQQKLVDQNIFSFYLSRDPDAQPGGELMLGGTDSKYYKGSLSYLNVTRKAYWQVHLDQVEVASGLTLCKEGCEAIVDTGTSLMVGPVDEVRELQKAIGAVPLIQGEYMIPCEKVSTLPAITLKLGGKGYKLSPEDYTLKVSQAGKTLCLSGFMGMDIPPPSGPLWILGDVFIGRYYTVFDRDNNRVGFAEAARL

The molecule `O=C(/C=C/c1c(Cl)cccc1Cl)N[C@@H](Cc1ccccc1)[C@@H](O)CN(CCc1ccccn1)C(=O)COc1c(Cl)cc(Cl)cc1Cl` had a Ki greater than 100000 nM. `O=C(COc1c(Cl)cc(Cl)cc1Cl)N[C@@H](Cc1ccccc1)[C@@H](O)CN(CCc1ccc2c(c1)OCO2)C(=O)CCN1C(=O)c2ccccc2C1=O`: the affinity, expressed as Ki, was 73 nM. For the molecule `O=C(COc1ccc(Cl)cc1Cl)N[C@@H](Cc1ccccc1)[C@@H](O)CN(CCc1ccc2c(c1)OCO2)C(=O)CCN1C(=O)c2ccccc2C1=O`, the affinity, expressed as Ki, was 3 nM.

Consider `O=C(/C=C/c1c(Cl)cccc1Cl)N[C@@H](Cc1ccccc1)[C@@H](O)CN(CCc1cccs1)C(=O)CCc1ccc(Cl)c(Cl)c1`, for which the Ki was roughly 10000 nM.

Regarding `COc1cc(Br)c(C(=O)N[C@@H](Cc2ccccc2)[C@@H](O)CN(CCc2ccc(Cl)cc2Cl)C(=O)CCN2C(=O)c3ccccc3C2=O)cc1OC`, affinity was put at a Ki of 5.2 nM. As for `O=C(COc1cc(Cl)c(Cl)cc1Cl)N[C@@H](Cc1ccccc1)[C@H](O)CN(CCc1ccc2c(c1)OCO2)C(=O)CCN1C(=O)c2ccccc2C1=O`, the Ki is greater than 5000 nM.

For orientation: Ki means the equilibrium dissociation constant of an inhibitor or competing ligand from its target. Read a high Ki as a looser hold on the target.

Values taken from ChEMBL document CHEMBL1135901, “Molecular dynamics and free energy analyses of cathepsin D-inhibitor interactions: insight into structure-based ligand design” (J Med Chem, 2002).
